Biological target: T1, human MMP-9 (Homo sapiens, UniProt P14780)
T1 construct: purchased Yagai, Japan
Test: Inhibitory activity of human MMP-9
Assay type: biochemical
Settings: commercial kit (Yagai, Japan); degradation of FITC-labeled bovine type IV collagen after incubation for 4 hours at 42° C.
Method: Inhibitory Activity of Human MMP-9
The inhibitory activity of test compounds against human MMP-9 were measured by using commercial kits (Yagai, Japan). Gelatinolytic activity was determined by monitoring the degradation of FITC-labeled bovine type IV collagen after incubation for 4 hours at 42° C. The amount of degraded collagen was estimated by measuring the fluorescence intensity at 495 nm (excitation) and 520 nm (emission).
Inhibitory activity of human MMP-9 as mentioned above.

T1 sequence (P14780 94-707): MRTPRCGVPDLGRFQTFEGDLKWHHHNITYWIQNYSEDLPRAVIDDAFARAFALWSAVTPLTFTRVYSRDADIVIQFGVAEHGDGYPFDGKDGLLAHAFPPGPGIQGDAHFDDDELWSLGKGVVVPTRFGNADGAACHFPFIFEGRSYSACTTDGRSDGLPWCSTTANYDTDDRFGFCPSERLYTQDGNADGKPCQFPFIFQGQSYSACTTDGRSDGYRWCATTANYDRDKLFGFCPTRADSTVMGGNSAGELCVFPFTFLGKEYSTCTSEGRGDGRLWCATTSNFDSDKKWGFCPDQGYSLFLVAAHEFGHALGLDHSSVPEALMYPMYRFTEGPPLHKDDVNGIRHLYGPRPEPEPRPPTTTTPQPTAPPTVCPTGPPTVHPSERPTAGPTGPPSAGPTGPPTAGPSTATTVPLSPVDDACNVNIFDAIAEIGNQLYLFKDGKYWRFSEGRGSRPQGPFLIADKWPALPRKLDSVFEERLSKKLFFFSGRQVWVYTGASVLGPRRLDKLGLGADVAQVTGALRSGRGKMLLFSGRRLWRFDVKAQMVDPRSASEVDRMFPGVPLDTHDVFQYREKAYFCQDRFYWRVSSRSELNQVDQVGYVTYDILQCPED

IC50: 2.85 nM
SMILES: COc1ccc(-c2ccc(C3(CC(=O)NO)CCN(S(C)(=O)=O)CCS3(=O)=O)s2)cc1 (stereo not shown) [Example 17, N-hydroxy-2-[7-(5-(4-methoxyphenyl)-2-thienyl)-4-methanesulfonyl-1,1-dioxoperhydro-1,4-thiazepin-7-yl]acetamide]

— patent US6967197B2, “Thiazepinyl hydroxamic acid derivatives as matrix metalloproteinase inhibitors” (Fujisawa Pharmaceutical Co., Ltd., priority 2000, dated 2005)
